Assay results from ChEMBL document CHEMBL1201862, “PubChem BioAssay data set” (2004).
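Interpolation was linear, between the two tested concentrations surrounding the appropriate level; five concentrations were tested over 48 hours in 96-well plates. GI50: concentration for 50% inhibition of growth.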 Activity calls are given as the source filed them. Cut-off read from the data, not from the text of the source: active = GI50 up to about 1.1 µM and inactive = higher.

Key:
Test in all cases: NCI-60 cell line screen, 48 h
Hs-578T = system: Hs-578T
ACHN = system: ACHN
HL-60 = system: HL-60
MCF7 = system: MCF7
RXF 393 = system: RXF 393
IGROV-1 = system: IGROV-1
SK-MEL-5 = system: SK-MEL-5
UACC-257 = system: UACC-257
OVCAR-3 = system: OVCAR-3
DU-145 = system: DU-145
CCRF-CEM = system: CCRF-CEM
SN12C = system: SN12C
NCI-H226 = system: NCI-H226
SK-MEL-2 = system: SK-MEL-2
MDA-MB-231 = system: MDA-MB-231
LOX IMVI = system: LOX IMVI
HCC 2998 = system: HCC 2998
SNB-75 = system: SNB-75
EKVX = system: EKVX
BT-549 = system: BT-549

| Structure (SMILES) | GI50 (Hs-578T) | GI50 (ACHN) | GI50 (HL-60) | GI50 (MCF7) | GI50 (RXF 393) | GI50 (IGROV-1) | GI50 (SK-MEL-5) | GI50 (UACC-257) | GI50 (OVCAR-3) | GI50 (DU-145) | GI50 (CCRF-CEM) | GI50 (SN12C) | GI50 (NCI-H226) | GI50 (SK-MEL-2) | GI50 (MDA-MB-231) | GI50 (LOX IMVI) | GI50 (HCC 2998) | GI50 (SNB-75) | GI50 (EKVX) | GI50 (BT-549) |
| --- | --- | --- | --- | --- | --- | --- | --- | --- | --- | --- | --- | --- | --- | --- | --- | --- | --- | --- | --- | --- |
| O=c1oc2ccccc2c2c(=O)c3ccc(OC/C(=N/O)c4ccc(Cl)cc4)cc3oc12 | 8.3 µM (inactive) | 5.85 µM (inactive) | 9.25 µM (inactive) | 5.83 µM (inactive) | 2.16 µM (inactive) | 31.5 µM (inactive) | 5.05 µM (inactive) | 33.9 µM (inactive) | 3.62 µM (inactive) | 18.6 µM (inactive) | 28.3 µM (inactive) | 19.9 µM (inactive) | 17.4 µM (inactive) | 4.85 µM (inactive) | 20.8 µM (inactive) | 11.8 µM (inactive) |  |  |  |  |
| O=[N+]([O-])c1cc(-c2nnc(C34CC5CC(CC(C5)C3)C4)o2)cc([N+](=O)[O-])c1 | 64.7 µM (inactive) | 58.6 µM (inactive) | > 100 µM (inactive) |  | > 100 µM (inactive) | > 100 µM (inactive) | 14.1 µM (inactive) | 83.4 µM (inactive) | 63.5 µM (inactive) | 33 µM (inactive) | > 100 µM (inactive) | 90.8 µM (inactive) | 83.4 µM (inactive) | 63.4 µM (inactive) | 39.2 µM (inactive) | > 100 µM (inactive) | 70.5 µM (inactive) | 74.6 µM (inactive) | > 100 µM (inactive) |  |
| O=C(NCCOC(=O)OCCNC(=O)NC1CCCCC1)NC1CCCCC1 | > 100 µM (inactive) | > 100 µM (inactive) | > 100 µM (inactive) | 0.834 µM (active) | 72.6 µM (inactive) | > 100 µM (inactive) | > 100 µM (inactive) | > 100 µM (inactive) | > 100 µM (inactive) | > 100 µM (inactive) | > 100 µM (inactive) | > 100 µM (inactive) | > 100 µM (inactive) | > 100 µM (inactive) | 15.8 µM (inactive) | > 100 µM (inactive) | > 100 µM (inactive) | 0.26 µM (active) | > 100 µM (inactive) |  |
| O=C(NC(=O)c1ccccc1[N+](=O)[O-])Nc1ccc(Oc2ncc(Cl)cn2)c(C(F)(F)F)c1 | < 0.01 µM (active) | 0.0789 µM (active) | < 0.01 µM (active) | < 0.01 µM (active) | < 0.01 µM (active) | 0.0213 µM (active) | < 0.01 µM (active) | < 0.01 µM (active) | < 0.01 µM (active) | 0.0366 µM (active) | 0.0154 µM (active) | 0.0873 µM (active) | 0.0191 µM (active) | < 0.01 µM (active) | 0.0371 µM (active) | 0.0262 µM (active) | 0.0209 µM (active) | < 0.01 µM (active) | 0.126 µM (active) |  |
| Nc1ncnc2c1nc(Cl)n2C1OC2COP(=O)(O)OC2C1O (stereo not given) | 19.6 µM (inactive) | 4.99 µM (inactive) | 1.23 µM (inactive) | 3.49 µM (inactive) | 3.15 µM (inactive) | 11 µM (inactive) | > 47.4 µM (inactive) | 18.9 µM (inactive) | 12.2 µM (inactive) | 6.67 µM (inactive) | 1.29 µM (inactive) | 12 µM (inactive) | 3.41 µM (inactive) | > 100 µM (inactive) |  | 1.19 µM (inactive) | 38.9 µM (inactive) | 11.3 µM (inactive) | 22.4 µM (inactive) |  |
| CCn1c(=N)sc2nc3ccccc3n2c1=O | > 100 µM (inactive) | > 100 µM (inactive) | > 100 µM (inactive) | 9.48 µM (inactive) | > 100 µM (inactive) | > 100 µM (inactive) | > 100 µM (inactive) | > 100 µM (inactive) | > 100 µM (inactive) | > 100 µM (inactive) | 90.8 µM (inactive) | > 100 µM (inactive) | > 100 µM (inactive) | > 100 µM (inactive) | > 100 µM (inactive) | > 100 µM (inactive) | > 100 µM (inactive) | 40 µM (inactive) | > 100 µM (inactive) |  |
| CC(C)(C)OC(=O)N1N=CCC1c1ccccc1 (stereo not given) | > 100 µM (inactive) | > 100 µM (inactive) | > 100 µM (inactive) | > 100 µM (inactive) | > 100 µM (inactive) | > 100 µM (inactive) | > 100 µM (inactive) | > 100 µM (inactive) | > 100 µM (inactive) | > 100 µM (inactive) | 56.2 µM (inactive) | > 100 µM (inactive) | > 100 µM (inactive) |  |  | > 100 µM (inactive) | > 100 µM (inactive) | > 100 µM (inactive) | > 100 µM (inactive) |  |
| N#Cc1ccc(Oc2ccccc2)cc1C#N |  | > 100 µM (inactive) | 28.2 µM (inactive) |  | > 100 µM (inactive) | > 100 µM (inactive) | > 100 µM (inactive) | > 100 µM (inactive) | > 100 µM (inactive) |  | 22.4 µM (inactive) | 96.4 µM (inactive) | > 100 µM (inactive) | 82.4 µM (inactive) |  | 20.7 µM (inactive) | > 100 µM (inactive) | 72.3 µM (inactive) | > 100 µM (inactive) |  |
| N=C(N)c1ccc2oc3ccc(C(=N)N)cc3c(=O)c2c1 |  | > 100 µM (inactive) | > 100 µM (inactive) | 60.4 µM (inactive) | > 100 µM (inactive) | > 100 µM (inactive) | > 100 µM (inactive) | > 100 µM (inactive) | > 100 µM (inactive) | > 100 µM (inactive) | > 100 µM (inactive) | > 100 µM (inactive) | > 100 µM (inactive) | > 100 µM (inactive) | > 100 µM (inactive) |  | > 100 µM (inactive) | > 100 µM (inactive) |  | > 100 µM (inactive) |
| Oc1nncc2[nH]c(-c3ccccc3)cc12 |  | 46.3 µM (inactive) | 71.9 µM (inactive) | 24.4 µM (inactive) | 27 µM (inactive) | > 100 µM (inactive) | 23.3 µM (inactive) | 30.5 µM (inactive) | 36.2 µM (inactive) | 79.8 µM (inactive) | 36.7 µM (inactive) | 54.1 µM (inactive) | 86.1 µM (inactive) | 29.6 µM (inactive) | 34 µM (inactive) | 66.1 µM (inactive) | 36 µM (inactive) | 22.9 µM (inactive) | 21.9 µM (inactive) | 37.8 µM (inactive) |
| CC(C)=CC(=O)C1c2cccc(O)c2C(=O)c2c(O)cc(C)cc21 (stereo not given) |  | 2.12 µM (inactive) | 3.24 µM (inactive) |  | 2.16 µM (inactive) | 2.09 µM (inactive) | 2.05 µM (inactive) | 2.88 µM (inactive) | 1.99 µM (inactive) |  | 2.55 µM (inactive) | 5.71 µM (inactive) | 2.24 µM (inactive) | 1.98 µM (inactive) |  | 1.86 µM (inactive) | 1.2 µM (inactive) | 2.12 µM (inactive) | 12.6 µM (inactive) |  |
| C/C(=N\OCC(O)CNCCSCc1ccccc1)c1ccccc1Cl (stereo not given) | 27.7 µM (inactive) | 18.1 µM (inactive) | 24 µM (inactive) | 19.8 µM (inactive) | 18.7 µM (inactive) |  | 17.1 µM (inactive) | 18.5 µM (inactive) | 17.9 µM (inactive) | 23.3 µM (inactive) | 28.6 µM (inactive) | 18.6 µM (inactive) | 17.6 µM (inactive) | 40.4 µM (inactive) | 18 µM (inactive) | 16.8 µM (inactive) | 19.4 µM (inactive) | 21.4 µM (inactive) | 20 µM (inactive) |  |
| CN(C)c1nc(N(C)C)nc(N(C)C23CC4CC(CC(C4)C2)C3)n1 |  | 41.3 µM (inactive) |  | 37.6 µM (inactive) | 20 µM (inactive) | 17.1 µM (inactive) |  | 34.3 µM (inactive) | 17.1 µM (inactive) | 41.1 µM (inactive) | 22.4 µM (inactive) |  | 32.6 µM (inactive) | 25.1 µM (inactive) | 23.8 µM (inactive) |  | 39.6 µM (inactive) | 24.3 µM (inactive) | 32 µM (inactive) | 27.7 µM (inactive) |
| O=c1c2c3c(sc2nc2n1N=C(c1ccc(Br)cc1)CS2)CCCC3 |  | > 100 µM (inactive) | > 100 µM (inactive) | > 100 µM (inactive) | > 100 µM (inactive) | > 100 µM (inactive) |  | > 100 µM (inactive) | > 100 µM (inactive) | > 100 µM (inactive) | > 100 µM (inactive) | > 100 µM (inactive) | > 100 µM (inactive) |  | > 100 µM (inactive) | > 100 µM (inactive) | > 100 µM (inactive) | > 100 µM (inactive) | > 100 µM (inactive) | > 100 µM (inactive) |
| CN(CC(=O)O)c1ncc2c(n1)C=CCC2 | > 100 µM (inactive) | > 100 µM (inactive) | 81.5 µM (inactive) | > 100 µM (inactive) | > 100 µM (inactive) | > 100 µM (inactive) | > 100 µM (inactive) | > 100 µM (inactive) | > 100 µM (inactive) | > 100 µM (inactive) | > 100 µM (inactive) | > 100 µM (inactive) | > 100 µM (inactive) | > 100 µM (inactive) | > 100 µM (inactive) | > 100 µM (inactive) |  | > 100 µM (inactive) | > 100 µM (inactive) |  |
| COc1ccc(NC(=O)c2cc(OC)cc(OC)c2)cc1 |  | 57.4 µM (inactive) | 6.98 µM (inactive) |  | 17.8 µM (inactive) | 28 µM (inactive) | 9.38 µM (inactive) | 98.4 µM (inactive) | 12.1 µM (inactive) |  | 27.9 µM (inactive) | 67 µM (inactive) | 31.7 µM (inactive) | 25.9 µM (inactive) |  | 17.6 µM (inactive) | 23 µM (inactive) | 27.9 µM (inactive) | 24.2 µM (inactive) |  |
